“Also recorded” adds a separate entry of the source. Read-outs that look alike come from different tables or passages of the source.
What was measured:
RXRα:RAR heterodimer = target: T1, RXRα:RAR heterodimer (Homo sapiens, UniProt P19793); experiment: RXR:RAR heterodimer co-transfection assay in CV-1 cells; format: cell-based
T1 construct: expressed in transfected cells; host or cells: CV-1 cells
T1 sequence (P19793 1-462): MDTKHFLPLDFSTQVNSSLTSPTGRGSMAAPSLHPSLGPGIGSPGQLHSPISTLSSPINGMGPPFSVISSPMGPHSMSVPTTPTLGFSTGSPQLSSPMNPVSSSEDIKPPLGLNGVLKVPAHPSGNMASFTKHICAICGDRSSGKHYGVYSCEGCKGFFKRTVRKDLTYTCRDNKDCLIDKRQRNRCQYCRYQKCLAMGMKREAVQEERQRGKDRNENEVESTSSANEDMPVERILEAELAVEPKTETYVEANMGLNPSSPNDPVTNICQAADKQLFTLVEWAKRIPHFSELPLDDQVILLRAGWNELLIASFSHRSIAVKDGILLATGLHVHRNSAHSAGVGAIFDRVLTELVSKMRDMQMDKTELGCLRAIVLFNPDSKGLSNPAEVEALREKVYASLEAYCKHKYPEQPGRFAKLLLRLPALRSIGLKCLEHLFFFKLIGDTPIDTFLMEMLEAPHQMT
Method: For determination of agonist activity in the context of the RXR:RAR heterodimer or the RXR:PPARγ heterodimer, media containing compounds of the present invention in concentrations ranging from 10^−10 to 10^−5 M were added to the cells.
Compounds of the present invention were also tested for the ability to synergize with a PPARγ agonist in the context of an RXR heterodimer. […] Efficacy of the compounds of the present invention in the agonist and synergy assays was calculated as the maximum response obtained over the range of the dose response curve relative to the maximum response obtained by the reference agonist. Antagonist efficacy was determined as a function (%) of maximal inhibition.
However, when RAR is occupied, typical RXR agonists activate the heterodimer. […] To examine the effects of the compounds of the present invention on the transcriptional properties of the RXR:RAR heterodimer, a heterodimer cotransfection assay as described above was employed.

RXRα homodimer (RXR:RXR) = target: T2, RXRα homodimer (RXR:RXR) (Homo sapiens, UniProt P19793); experiment: RXR homodimer co-transfection assay in CV-1 cells; format: cell-based; settings: for activity on the RXR:RXR homodimer: cotransfection assay; for IC50: in presence of LGD1069, read-out: RXRα Homodimer Cotransfection Assay Antagonist IC50; for IC50 / EC50: not calculated if efficacy <10%; for RXR:RXR CV-1 (%) Antag.: maximal repression (100%) in presence of 32 nM LGD1069; for RXR:RXR CV-1 (%) Ag.: maximal response relative to ATRA; for EC50: read-out: RXRα Homodimer Cotransfection Assay Agonist EC50
T2 sequence (P19793 1-462): T1 sequence (P19793 1-462)
From the text: In the co-transfection assay, cloned cDNA for one or more IRs (e.g., human RARα, RXRα, or PPARγ), alone or in combination (i.e. for heterodimer assays) under the control of a constitutive promoter (e.g., the SV 40, RSV or CMV promoter) is introduced by transfection (a procedure to introduce exogenous genes into cells) into a background cell substantially devoid of endogenous IRs. These introduced gene(s) direct the recipient cells to make the IR protein(s) of interest. A further gene is also introduced (co-transfected) into the same cells in conjunction with the IR gene(s). This further gene, comprising the cDNA for a reporter protein, such as firefly luciferase (LUC), controlled by an appropriate hormone responsive promoter containing a hormone response element (HRE). This reporter plasmid functions as a reporter for the transcriptional-modulating activity of the target IR(s). Thus, the reporter acts as a surrogate for the products (mRNA then protein) normally expressed by a gene under control of the target receptor(s) and their native hormone(s).
Exposing the transfected cells to an agonist ligand compound increases reporter activity in the transfected cells. This activity can be conveniently measured, e.g., by increasing luciferase production and enzymatic activity, which reflects compound-dependent, IR-mediated increases in reporter transcription. […] Increasing concentrations of an antagonist will decrease the reporter signal (e.g., luciferase production). The co-transfection assay is therefore useful to detect both agonists and antagonists of specific IRs. Furthermore, it determines not only whether a compound interacts with a particular IR, but whether this interaction mimics (agonizes) or blocks (antagonizes) the effects of native or synthetic regulatory molecules on target gene expression, as well as the specificity and strength of this interaction.
The receptor expression plasmid was cotransfected along with a reporter plasmid at 50 ng/well, the internal control plasmid pRS-β-Gal at 50 ng/well and filler DNA, pGEM, at 90 ng/well.
Six hours after transfection, media was removed and the cells were washed with phosphate-buffered saline (PBS). Media containing compounds of the present invention in concentrations ranging from 10^−10 to 10^−5 M were added to the cells. […] Retinoids were dissolved in dimethylsulfoxide for use in the transcriptional activation assays. Two to three replicates were used for each sample. Transfections and subsequent procedures were performed on a Biomek 1000 automated workstation.
After 40 hours, the cells were washed with PBS, lysed with a detergent-based buffer and assayed for LUC and β-Gal activities using a luminometer or spectrophotometer, respectively. For each replicate, the normalized response (NR) was calculated as: […]
The mean and standard error of the mean (SEM) of the NR were calculated. Data were plotted as the response of the compound compared to the reference compounds over the range of the dose-response curve. […] Antagonist activity was determined by testing the amount of LUC expression in the presence of the RXR agonists described above at the EC50 concentration for such known compounds. […] In addition, the efficacy of antagonists was determined as a function (%) of maximal inhibition.

db/db mouse = db/db mouse study (rodent model of Type II diabetes); settings: for db/db mouse Glu. (D 14): plasma glucose, 100 mg/kg daily oral gavage; for db/db mouse Glu. (D 14) / db/db mouse Trigs. (D 14): day 14
Method: Mice (obtained from Jackson Laboratory), ZDF rats (obtained from Genetic Models Inc.) and fa/fa rats (obtained from either Charles River, or Harlan) were maintained on 12-hour light/dark cycle. […] Compounds were administered at the specified doses by oral gavage on the morning of each day of any experiment. Blood samples were obtained 3 hours after dosing from fed animals under anesthesia and collected into heparinized capillary tubes from the tail vein.

[1] = maximal repression (100%) in presence of 10 nM TTNPB
[2] = relative to maximal repression (100%) in presence of 10 nM TTNPB
[3] = Table 3 c4, in presence of 3.2×10^−8 M LGD1069
[4] = % correction relative to lean values
[5] = rodent models of Type II Diabetes
[6] = CV-1, read-out: RXR:RAR CV-1 (%) Ag.
[7] = CV-1, read-out: RXRα:RAR Heterodimer Cotransfection Assay Agonist Efficacy (%)
[8] = plasma triglycerides, % correction relative to lean values, NC = no change

`CCCCCCCOc1c(/C(C)=C/C=C/C(C)=C/C(=O)O)cc(C(C)(C)C)cc1C(C)(C)C` [Compound L5] was tested, and the Emax (RXRα:RAR heterodimer; CV-1; read-out: RXR:RAR CV-1 (%) Ag.) was 5%, the Emax (RXRα:RAR heterodimer; CV-1; read-out: RXRα:RAR Heterodimer Cotransfection Assay Agonist Efficacy (%)) was 5% and the “antagonist activity on the RXR:RAR heterodimer” value (RXRα:RAR heterodimer; antagonist assay) was “significant RXR:RAR antagonist activity”. The “agonist activity on the RXR:RAR heterodimer” value (RXRα:RAR heterodimer; compound alone) was “not active as RXR:RAR agonists”, the “RXR:RAR CV-1 (%) Antag.” value (RXRα:RAR heterodimer; [1]) was 68% and the “RXRα:RAR Heterodimer Cotransfection Assay Antagonist Efficacy (%)” value (RXRα:RAR heterodimer; [2]) was 68%. The “RXRα Homodimer Cotransfection Assay Agonist Efficacy (%)” value (RXRα homodimer (RXR:RXR); Table 3 c2, mean of n > 3) was 0%, the “RXRα Homodimer Cotransfection Assay Agonist Efficacy (%)” value (RXRα homodimer (RXR:RXR); [3]) was 94% and the “activity on the RXR:RXR homodimer” value (RXRα homodimer (RXR:RXR)) was “full antagonists; also recorded: highly efficacious and potent antagonist activity with little or no agonist activity”. The IC50 (RXRα homodimer (RXR:RXR)) was 10 nM, the “RXR:RXR CV-1 (%) Antag.” value (RXRα homodimer (RXR:RXR)) was 94% and the “RXR:RXR CV-1 (%) Ag.” value (RXRα homodimer (RXR:RXR)) was 0%. The “db/db mouse Glu. (D 14)” value (db/db mouse; [4]) was 0%, the “effect on the thyroid hormone axis” value (db/db mouse; [5]) was “no effect” and the “effect on triglycerides” value (db/db mouse; [5]) was “no effect”. For the same compound, the “insulin sensitizing activity / effect on glucose” value (db/db mouse; [5]) was “no effect”.

With `CCCCOc1c(/C(C)=C/C=C/C(C)=C/C(=O)O)cc(C(C)(C)C)cc1C(C)(C)C` [Compound L4] the Emax (RXRα:RAR heterodimer; [6]) was 2%, the Emax (RXRα:RAR heterodimer; [7]) was 2% and the “antagonist activity on the RXR:RAR heterodimer” value (RXRα:RAR heterodimer; antagonist assay) was “significant RXR:RAR antagonist activity”. The “agonist activity on the RXR:RAR heterodimer” value (RXRα:RAR heterodimer; compound alone) was “not active as RXR:RAR agonists”, the “RXR:RAR CV-1 (%) Antag.” value (RXRα:RAR heterodimer; [1]) was 88% and the “RXRα:RAR Heterodimer Cotransfection Assay Antagonist Efficacy (%)” value (RXRα:RAR heterodimer; [2]) was 88%. For the same compound, the “RXRα Homodimer Cotransfection Assay Agonist Efficacy (%)” value (RXRα homodimer (RXR:RXR); Table 3 c2, mean of n > 3) was 1%, the “RXRα Homodimer Cotransfection Assay Agonist Efficacy (%)” value (RXRα homodimer (RXR:RXR); [3]) was 92% and the “activity on the RXR:RXR homodimer” value (RXRα homodimer (RXR:RXR)) was “highly efficacious and potent antagonist activity with little or no agonist activity”. The IC50 (RXRα homodimer (RXR:RXR)) was 9 nM, the “RXR:RXR CV-1 (%) Antag.” value (RXRα homodimer (RXR:RXR)) was 92% and the “RXR:RXR CV-1 (%) Ag.” value (RXRα homodimer (RXR:RXR)) was 1%. For the same compound, the “db/db mouse Glu. (D 14)” value (db/db mouse; [4]) was 50%, the “db/db mouse Trigs. (D 14)” value (db/db mouse; [8]) was 105% and the “effect on the thyroid hormone axis” value (db/db mouse; [5]) was “absence of detectable suppression of the thyroid hormone axis”. The “insulin sensitizing activity with thyroid axis suppression and triglyceride elevations” value (db/db mouse; [5]) was “maintain the desirable insulin sensitizing activity and eliminate or reduce both the suppression of the thyroid axis and triglyceride elevations; also recorded: maintain the desirable insulin sensitizing activity and minimize both the suppression of the thyroid axis and triglyceride elevations”.

`CCOc1c(/C(C)=C/C=C/C(C)=C/C(=O)O)cc(C(C)(C)C)cc1C(C)(C)C` [Compound L2] was tested, and the Emax (RXRα:RAR heterodimer; [6]) was 6%, the Emax (RXRα:RAR heterodimer; [7]) was 6% and the “agonist activity on the RXR:RAR heterodimer” value (RXRα:RAR heterodimer; compound alone) was “not active in the RXR:RAR assay”. The “RXR:RAR CV-1 (%) Antag.” value (RXRα:RAR heterodimer; [1]) was 49%, the “RXRα:RAR Heterodimer Cotransfection Assay Antagonist Efficacy (%)” value (RXRα:RAR heterodimer; [2]) was 49% and the “RXRα Homodimer Cotransfection Assay Agonist Efficacy (%)” value (RXRα homodimer (RXR:RXR); Table 3 c2, mean of n > 3) was 11%. For the same compound, the “RXRα Homodimer Cotransfection Assay Agonist Efficacy (%)” value (RXRα homodimer (RXR:RXR); [3]) was 62%, the “activity on the RXR:RXR homodimer” value (RXRα homodimer (RXR:RXR)) was “partial agonist” and the IC50 (RXRα homodimer (RXR:RXR)) was 9 nM. The “RXR:RXR CV-1 (%) Antag.” value (RXRα homodimer (RXR:RXR)) was 62%, the “RXR:RXR CV-1 (%) Ag.” value (RXRα homodimer (RXR:RXR)) was 11% and the EC50 (RXRα homodimer (RXR:RXR)) was 14 nM. The “db/db mouse Glu. (D 14)” value (db/db mouse; [4]) was 91%, the “db/db mouse Trigs. (D 14)” value (db/db mouse; [8]) was 116% and the “effect on the thyroid hormone axis” value (db/db mouse; [5]) was “suppresses thyroid hormone axis”. The “db/db mouse T4 (D 3)” value (db/db mouse; total T4 as % of obese control values, day 3, NC = no change) was 45%.

With `COc1c(/C(C)=C/C=C/C(C)=C/C(=O)O)cc(C(C)(C)C)cc1C(C)(C)C` [Compound L1] the Emax (RXRα:RAR heterodimer; [6]) was 21%, the Emax (RXRα:RAR heterodimer; [7]) was 21% and the “agonist activity on the RXR:RAR heterodimer” value (RXRα:RAR heterodimer; compound alone) was “weak agonist activity alone”. For the same compound, the “RXR:RAR CV-1 (%) Antag.” value (RXRα:RAR heterodimer; [1]) was 19%, the “RXRα:RAR Heterodimer Cotransfection Assay Antagonist Efficacy (%)” value (RXRα:RAR heterodimer; [2]) was 19% and the “RXRα Homodimer Cotransfection Assay Agonist Efficacy (%)” value (RXRα homodimer (RXR:RXR); Table 3 c2, mean of n > 3) was 62%. For the same compound, the “RXRα Homodimer Cotransfection Assay Agonist Efficacy (%)” value (RXRα homodimer (RXR:RXR); [3]) was 7%, the “activity on the RXR:RXR homodimer” value (RXRα homodimer (RXR:RXR)) was “full RXR homodimer agonists; also recorded: agonist activity similar in efficacy and potency to the known RXR agonist, LG100268” and the “RXR:RXR CV-1 (%) Antag.” value (RXRα homodimer (RXR:RXR)) was 7%. For the same compound, the “RXR:RXR CV-1 (%) Ag.” value (RXRα homodimer (RXR:RXR)) was 62%, the EC50 (RXRα homodimer (RXR:RXR)) was 33 nM and the “db/db mouse Glu. (D 14)” value (db/db mouse; [4]) was 96%. For the same compound, the “db/db mouse Trigs. (D3)” value (db/db mouse; plasma triglycerides, % correction relative to lean values, day 3, NC = no change) was 300%, the “db/db mouse Trigs. (D 14)” value (db/db mouse; [8]) was 54% and the “effect on the thyroid hormone axis” value (db/db mouse; [5]) was “suppress the thyroid hormone axis”. The “effect on triglycerides” value (db/db mouse; [5]) was “raise triglycerides” and the “insulin sensitizing activity / effect on glucose” value (db/db mouse; [5]) was “efficacious insulin sensitizers”.
